# According to PubChem BioAssay (NCI):
#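 In this assay, cells in 96-well plates receive the compound at five concentrations for 48 hours. Endpoints are linearly interpolated between the surrounding concentrations. Definition used: TGI = concentration required for complete inhibition of growth.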
# Experiments:
# Test in all cases: NCI anticancer screen, dose series, 48 h
# HCT-116 colon = test system: HCT-116 colon
# K-562 leukemia = test system: K-562 leukemia
# SNB-78 CNS = test system: SNB-78 CNS
# UACC-257 melanoma = test system: UACC-257 melanoma
# OVCAR-8 ovarian = test system: OVCAR-8 ovarian
# UACC-62 melanoma = test system: UACC-62 melanoma
# OVCAR-5 ovarian = test system: OVCAR-5 ovarian
# SK-OV-3 ovarian = test system: SK-OV-3 ovarian
# SK-MEL-28 melanoma = test system: SK-MEL-28 melanoma
# SK-MEL-2 melanoma = test system: SK-MEL-2 melanoma
# RPMI-8226 leukemia = test system: RPMI-8226 leukemia
# SR leukemia = test system: SR leukemia
# UO-31 renal = test system: UO-31 renal
# KM20L2 colon = test system: KM20L2 colon
# DMS 114 small cell lung = test system: DMS 114 small cell lung
# HOP-92 NSCLC = test system: HOP-92 NSCLC
# NCI-H460 lung = test system: NCI-H460 lung
# SK-MEL-5 melanoma = test system: SK-MEL-5 melanoma
# 786-0 renal = test system: 786-0 renal
# HT29 colon = test system: HT29 colon
# A549 NSCLC = test system: A549 NSCLC
# SF-295 CNS = test system: SF-295 CNS
# LOX IMVI melanoma = test system: LOX IMVI melanoma
# HCC-2998 colon = test system: HCC-2998 colon
# SNB-19 CNS = test system: SNB-19 CNS
# KM12 colon = test system: KM12 colon
# SN12C renal = test system: SN12C renal
# NCI-H522 lung = test system: NCI-H522 lung
# CCRF-CEM leukemia = test system: CCRF-CEM leukemia
# SW-620 colon = test system: SW-620 colon
# HOP-62 NSCLC = test system: HOP-62 NSCLC
# TK-10 renal = test system: TK-10 renal
# ACHN renal = test system: ACHN renal
# M19-MEL melanoma = test system: M19-MEL melanoma
# NCI-H23 lung = test system: NCI-H23 lung
# EKVX NSCLC = test system: EKVX NSCLC
# CAKI-1 renal = test system: CAKI-1 renal
# SNB-75 CNS = test system: SNB-75 CNS
# U251 CNS = test system: U251 CNS
# DLD-1 colon = test system: DLD-1 colon
# MALME-3M melanoma = test system: MALME-3M melanoma
# OVCAR-3 ovarian = test system: OVCAR-3 ovarian
# HL-60(TB) leukemia = test system: HL-60(TB) leukemia
# SF-268 CNS = test system: SF-268 CNS
# A498 renal = test system: A498 renal
# LXFL 529 NSCLC = test system: LXFL 529 NSCLC
# NCI-H226 lung = test system: NCI-H226 lung
# COLO 205 colon = test system: COLO 205 colon
# DMS 273 small cell lung = test system: DMS 273 small cell lung
# M14 melanoma = test system: M14 melanoma
# IGROV1 ovarian = test system: IGROV1 ovarian
# SF-539 CNS = test system: SF-539 CNS
# MOLT-4 leukemia = test system: MOLT-4 leukemia
# HCT-15 colon = test system: HCT-15 colon
# RXF 393 renal = test system: RXF 393 renal
smiles,measurement,setting,value
CCOC1=CP(=O)(OCC)CC(C)=C1Cl (stereo not given),TGI,HCT-116 colon,> 100 µM
same,TGI,K-562 leukemia,> 100 µM
same,TGI,SNB-78 CNS,> 100 µM
same,TGI,UACC-257 melanoma,> 100 µM
same,TGI,OVCAR-8 ovarian,> 100 µM
same,TGI,UACC-62 melanoma,> 100 µM
same,TGI,OVCAR-5 ovarian,> 100 µM
same,TGI,SK-OV-3 ovarian,> 100 µM
same,TGI,SK-MEL-28 melanoma,> 100 µM
same,TGI,SK-MEL-2 melanoma,> 100 µM
same,TGI,RPMI-8226 leukemia,> 100 µM
same,TGI,SR leukemia,> 100 µM
same,TGI,UO-31 renal,> 100 µM
same,TGI,KM20L2 colon,> 100 µM
same,TGI,DMS 114 small cell lung,> 100 µM
same,TGI,HOP-92 NSCLC,> 100 µM
same,TGI,NCI-H460 lung,> 100 µM
same,TGI,SK-MEL-5 melanoma,> 100 µM
same,TGI,786-0 renal,> 100 µM
same,TGI,HT29 colon,> 100 µM
same,TGI,A549 NSCLC,> 100 µM
same,TGI,SF-295 CNS,> 100 µM
same,TGI,LOX IMVI melanoma,> 100 µM
same,TGI,HCC-2998 colon,> 100 µM
same,TGI,SNB-19 CNS,> 100 µM
same,TGI,KM12 colon,> 100 µM
same,TGI,SN12C renal,> 100 µM
same,TGI,NCI-H522 lung,> 100 µM
same,TGI,CCRF-CEM leukemia,> 100 µM
same,TGI,SW-620 colon,> 100 µM
same,TGI,HOP-62 NSCLC,> 100 µM
same,TGI,TK-10 renal,> 100 µM
same,TGI,ACHN renal,> 100 µM
same,TGI,M19-MEL melanoma,> 100 µM
same,TGI,NCI-H23 lung,> 100 µM
same,TGI,EKVX NSCLC,> 100 µM
same,TGI,CAKI-1 renal,> 100 µM
same,TGI,SNB-75 CNS,> 100 µM
same,TGI,U251 CNS,> 100 µM
same,TGI,DLD-1 colon,> 100 µM
same,TGI,MALME-3M melanoma,> 100 µM
same,TGI,OVCAR-3 ovarian,> 100 µM
same,TGI,HL-60(TB) leukemia,> 100 µM
same,TGI,SF-268 CNS,> 100 µM
same,TGI,A498 renal,> 100 µM
same,TGI,LXFL 529 NSCLC,> 100 µM
same,TGI,NCI-H226 lung,> 100 µM
same,TGI,COLO 205 colon,25.2 µM
same,TGI,DMS 273 small cell lung,75.2 µM
same,TGI,M14 melanoma,> 100 µM
same,TGI,IGROV1 ovarian,> 100 µM
same,TGI,SF-539 CNS,> 100 µM
same,TGI,MOLT-4 leukemia,> 100 µM
Cn1c(=O)c2ccccc2c2nc3ccccc3nc21,TGI,HCT-116 colon,> 100 µM
same,TGI,K-562 leukemia,> 100 µM
same,TGI,SNB-78 CNS,> 100 µM
same,TGI,UACC-257 melanoma,> 100 µM
same,TGI,OVCAR-8 ovarian,> 100 µM
same,TGI,UACC-62 melanoma,> 100 µM
same,TGI,OVCAR-5 ovarian,> 100 µM
same,TGI,SK-OV-3 ovarian,> 100 µM
same,TGI,SK-MEL-28 melanoma,> 100 µM
same,TGI,HCT-15 colon,> 100 µM
same,TGI,SK-MEL-2 melanoma,> 100 µM
same,TGI,RPMI-8226 leukemia,> 100 µM
same,TGI,SR leukemia,> 100 µM
same,TGI,UO-31 renal,> 100 µM
same,TGI,KM20L2 colon,> 100 µM
same,TGI,DMS 114 small cell lung,> 100 µM
same,TGI,SK-MEL-5 melanoma,> 100 µM
same,TGI,786-0 renal,> 100 µM
same,TGI,HT29 colon,> 100 µM
same,TGI,A549 NSCLC,> 100 µM
same,TGI,SF-295 CNS,> 100 µM
same,TGI,HCC-2998 colon,> 100 µM
same,TGI,SNB-19 CNS,> 100 µM
same,TGI,KM12 colon,> 100 µM
same,TGI,SN12C renal,> 100 µM
same,TGI,RXF 393 renal,> 100 µM
same,TGI,SW-620 colon,> 100 µM
same,TGI,TK-10 renal,> 100 µM
same,TGI,ACHN renal,> 100 µM
same,TGI,M19-MEL melanoma,> 100 µM
same,TGI,NCI-H23 lung,> 100 µM
same,TGI,EKVX NSCLC,> 100 µM
same,TGI,SNB-75 CNS,58.9 µM
same,TGI,U251 CNS,> 100 µM
same,TGI,MALME-3M melanoma,> 100 µM
same,TGI,SF-268 CNS,> 100 µM
same,TGI,LXFL 529 NSCLC,> 100 µM
same,TGI,NCI-H226 lung,> 100 µM
same,TGI,COLO 205 colon,> 100 µM
same,TGI,DMS 273 small cell lung,> 100 µM
same,TGI,IGROV1 ovarian,> 100 µM
same,TGI,SF-539 CNS,> 100 µM
same,TGI,MOLT-4 leukemia,> 100 µM
C=C1C(=O)OC2C1CC[C@H](C)C1(O)C(O)CC(=O)[C@@]21C (stereo not given in full),TGI,HCT-116 colon,33.9 µM
same,TGI,K-562 leukemia,55.6 µM
same,TGI,SNB-78 CNS,84.2 µM
same,TGI,UACC-257 melanoma,32.6 µM
same,TGI,OVCAR-8 ovarian,42.8 µM
same,TGI,UACC-62 melanoma,25.3 µM
same,TGI,OVCAR-5 ovarian,65.4 µM
same,TGI,SK-OV-3 ovarian,56 µM
same,TGI,SK-MEL-28 melanoma,27 µM
same,TGI,SK-MEL-2 melanoma,72.1 µM
same,TGI,RPMI-8226 leukemia,94.8 µM
same,TGI,SR leukemia,47.9 µM
same,TGI,UO-31 renal,71.2 µM
same,TGI,DMS 114 small cell lung,33.9 µM
same,TGI,HOP-92 NSCLC,47.7 µM
same,TGI,NCI-H460 lung,> 100 µM
same,TGI,SK-MEL-5 melanoma,31.4 µM
same,TGI,786-0 renal,66.7 µM
same,TGI,HT29 colon,48.9 µM
same,TGI,A549 NSCLC,> 100 µM
same,TGI,SF-295 CNS,61.3 µM
same,TGI,HCC-2998 colon,46.6 µM
same,TGI,SNB-19 CNS,> 100 µM
same,TGI,KM12 colon,34.1 µM
same,TGI,SN12C renal,45.1 µM
same,TGI,RXF 393 renal,> 10 µM
same,TGI,CCRF-CEM leukemia,> 10 µM
same,TGI,SW-620 colon,44 µM
same,TGI,TK-10 renal,> 10 µM
same,TGI,ACHN renal,43.4 µM
same,TGI,M19-MEL melanoma,26.8 µM
same,TGI,NCI-H23 lung,40.3 µM
same,TGI,EKVX NSCLC,45.1 µM
same,TGI,CAKI-1 renal,72.7 µM
same,TGI,SNB-75 CNS,76.2 µM
same,TGI,U251 CNS,> 100 µM
same,TGI,DLD-1 colon,80.7 µM
same,TGI,MALME-3M melanoma,39.2 µM
same,TGI,OVCAR-3 ovarian,47.8 µM
same,TGI,HL-60(TB) leukemia,55.2 µM
same,TGI,SF-268 CNS,54.5 µM
same,TGI,A498 renal,36 µM
same,TGI,LXFL 529 NSCLC,> 10 µM
same,TGI,NCI-H226 lung,53.3 µM
same,TGI,COLO 205 colon,30.8 µM
same,TGI,DMS 273 small cell lung,52.3 µM
same,TGI,IGROV1 ovarian,73.4 µM
same,TGI,SF-539 CNS,40.3 µM
same,TGI,MOLT-4 leukemia,42.7 µM
